Residue numbers refer to the chain shown, from its start.
Assays:
[1] = target: T1, recombinant GC (Cerezyme) (Homo sapiens, UniProt P04062, R534H); assay: peptide pulldown of recombinant GC; assay type: binding; settings: biotinylated peptide, tenfold molar amount, neutral pH, streptavidin beads
T1 construct: purchased Genzyme Therapeutics, Boston, USA
T1 sequence (P04062 40-536 R534H): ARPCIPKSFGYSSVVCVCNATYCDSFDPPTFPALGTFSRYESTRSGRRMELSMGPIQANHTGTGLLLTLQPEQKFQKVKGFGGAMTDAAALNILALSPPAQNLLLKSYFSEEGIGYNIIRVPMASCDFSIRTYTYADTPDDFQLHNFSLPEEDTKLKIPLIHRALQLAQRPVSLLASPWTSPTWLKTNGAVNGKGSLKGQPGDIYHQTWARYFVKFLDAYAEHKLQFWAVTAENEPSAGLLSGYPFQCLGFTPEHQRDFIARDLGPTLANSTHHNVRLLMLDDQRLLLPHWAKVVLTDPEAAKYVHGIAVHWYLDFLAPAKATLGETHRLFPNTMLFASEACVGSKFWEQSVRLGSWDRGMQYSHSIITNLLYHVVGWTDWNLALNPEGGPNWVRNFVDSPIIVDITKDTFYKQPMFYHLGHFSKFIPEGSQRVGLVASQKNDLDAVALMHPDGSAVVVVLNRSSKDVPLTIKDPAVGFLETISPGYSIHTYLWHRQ
Method: Expression plasmids of LIMP-2 and human GC constructs were generated as described previously (1). For Western blotting nitrocellulose or PVDF membranes were used. EndoH/PNGaseF digests were performed according to manufacturer's instructions (New England Biolabs, Ipswich, USA). For co-immunoprecipitation experiments magnetic agarose G beads (Thermo Fisher Scientific, Waltham, USA) were utilized. Immunofluorescence studies were performed in cells as previously described (1, 3). Cellular co-localization of two proteins was determined by the Pearson's Index (35). Enzyme activity assays of cell lysates or recombinant protein were measured at acid pH using absorbent and fluorescent artificial substrates. For peptide studies, peptides were N-terminally tagged with biotin. If not stated otherwise, recombinant enzyme was incubated with a tenfold higher molarity of peptides. Conditions for pulldown experiments were kept at neutral pH. Protein modelling, molecular analyses, graphics and animations were performed with the UCSF Chimera package.
All peptides were purchased from jpt Peptide Technologies (Berlin, GER). […] The concentration of the peptides as well as the recombinant proteins was determined spectroscopically (Nanodrop 2000c; Thermo Fisher Scientific, Waltham, USA). […]

[2] = target: T2, recombinant N370S mutant GC (Homo sapiens, UniProt P04062, N409S); assay: activity assay of recombinant N370S mutant GC (4-MU substrate); assay type: biochemical; settings: cell-free, tenfold molar amount of peptide, relative to buffer control
T2 sequence (P04062 40-536 N409S): T1 sequence (P04062 40-536 R534H) with N370S, H495R
Text: To determine the enzymatic activity of the recombinant enzymes, lyophilized enzymes were reconstituted in the NaPi buffer described above. The lyophilized samples of wild-type GC (Cerezyme®) and the custom-made recombinant N307S mutant enzyme contain 0.01% polysorbate 80 (Tween 80) (see prescription information for Cerezyme® at the website for Cerezyme®). As indicated in our experiments, the concentration of the detergent is sufficient to support active GC enzyme and to perform the in vitro GC activity assays without adding further detergents to the reaction mix. […]
Using the fluorescent substrate 4-MU (FIG. 3K), 10 μL of the recombinant enzyme/peptide mixture (0.1 nmol GC/N370S previously incubated with 1 nmol helix 5 TAT peptide in 50 mM NaPi buffer; total incubation volume 40 μL) were incubated directly with 60 μL of 0.2 M sodium citrate buffer and 10 μL of the substrate (5 mM dissolved in 0.2 M sodium citrate buffer) in a black-bottomed 96-well dish (Nunc no. 446473; Thermo Fisher Scientific). […] The fluorescence was assessed at an excitation wavelength of 365 nm and an emission wavelength of 445 nm in a SpectraMax i3 plate reader (Molecular Devices). […]

Substance | co-precipitation of recombinant GC [1] | increase in the activity of the N370S mutant GC [2]
Biotin-Ttds-LREIIEAMLKAYQQKLFVTHTVDE [helix 5 peptide] | specifically co-precipitated | 
Biotin-Ttds-KFERQLREIIEAMLKAYQQKLFVTHTVDEYGRKKRRQRRR [helix 5 TAT-peptide] |  | four-fold increase

From US10286038B2, “Lysosome membrane protein 2 (LIMP-2) based peptides and related uses” (Northwestern University, priority 2016, dated 2019)
